This test addresses T1, α-7 nicotinic ACh receptor ion channels expressed in mammalian HEK 293 cells (Rattus norvegicus, UniProt Q05941).
T1 construct: expressed in transfected cells
The test is described as follows: Ca2+-sensitive, fluorescence-based assay for α-7 nicotinic acetylcholine receptor channel function (FLIPR). It counts as cell-based. How it is done: II) A Ca^2+-Sensitive, Fluorescence-Based Assay α-7 for Nicotinic Acetylcholine Receptor Channel Function In Mammalian Cells (“FLIPR”).
Lead compounds are evaluated for agonist activity at α-7, α3β4, α4αβ2, and α1β1δ1ε sub-types of nicotinic ACh receptor ion channels expressed in mammalian HEK 293 cells. Agonist potency and efficacy values are determined from kinetic fluorescence Ca^2+ influx measurements made using a 384 well FLIPR (Fluorescence Image Plate Reader). […] In this assay, channel expressing HEK cell lines seeded in 384 well assay plates are loaded with a membrane permeant fluorescent Ca^2+ indicator dye, whose 510 nm green emission signal increases in response to elevation of intracellular Ca^2+ concentration. The basal fluorescence from the cells is monitored in real time, followed by the acute addition of test compounds.
Reagents: The acetomethoxy (AM) ester of the Ca^2+ indicator dye Fluo-4 was obtained from InVitrogen, (Carlsbad, Calif.). Acetylcholine and all buffer constituents were purchased from Sigma Chemical Company, St. Louis, Mo. G418 and Minimal Essential Medium were purchased from InVitrogen Life Technologies, Carlsbad, Calif. Fetal bovine serum was purchased from (InVitrogen, Carlsbad, Calif.).
HEK-293 cells were grown in Minimal Essential Medium containing 10% (v/v) fetal bovine serum at 37° C. in a 5% CO2 incubator. HEK-293 cells stably expressing the ion channels were grown in the same medium with the addition of 500 μg/ml G418.
HEK-293 cells expressing the ion channels of interest were plated in 384 well, black-walled, clear-bottomed, poly-D-lysine coated plates at a density of ˜20,000 cells/well in 20 μl of Minimal Essential Medium containing 10% (v/v) fetal bovine serum and incubated for 2 days at 29° C. in a 5% CO2 incubator. Prior to assay, cells were loaded with the Fluo-4 AM ester. […] Dye loading was allowed to proceed for 90 minutes at room temperature at which time the dye loading solution was removed and replaced with 40 μl/well of Hanks buffer. Cells loaded with dye were loaded onto a FLIPR384 (Molecular Devices, Sunnyvale, Calif.). Fluo-4 dye was excited using the 488 nm line of an argon laser. Emission was filtered using a 540+/−30 nm bandpass filter. For evaluation of the effects of test compounds using the Ca^2+ flux assay, compounds to be tested were provided in assay ready plates. For nicotinic receptor ion channel expressing cells, the assay was initiated by the addition of 20 μl/well of Hanks buffer containing test compounds. For all assays, data were collected at 1 Hz for 10 seconds (baseline), at which time the compound containing stimulus buffers are added, and further measurements collected at 0.33 Hz for 3 min.
The statistical robustness of the nicotinic receptor Ca^2+ flux assays is determined from blanks and totals wells. […] The raw fluorescence units data files generated on the FLIPR plate reader are automatically exported and processed by in-house data analysis tools. The reduced percent activation data for each concentration of test compound are fit using MathIQ fitting engine (ID Business Solutions Limited, Surrey, UK). Data were analyzed by fitting maximum amplitudes of change in fluorescence, for Ca^2+ flux for a given condition of test compound. […] Test compound efficacy values (Ymax values) are expressed relative to a maximal response to acetylcholine in the total wells.

The mark [1] stands for this setting: activity class based on EC50, Ca2+ influx, read-out: FLIPR α7 actvity rating (EC50).
Setting [2] is: agonist potency, Ca2+ influx, read-out: FLIPR α7-HI (EC50).
The mark [3] stands for this setting: FLIPR α7-HI (EC50, nM), agonist potency, Ca2+ influx.
Where [4] appears, read: FLIPR α7 actvity rating (EC50, nM), activity class based on EC50, Ca2+ influx.

Read-outs that look alike come from different tables or passages of the source. A value given as a limit tells only on which side of the number the result lay.

T1 sequence (Q05941 23-502): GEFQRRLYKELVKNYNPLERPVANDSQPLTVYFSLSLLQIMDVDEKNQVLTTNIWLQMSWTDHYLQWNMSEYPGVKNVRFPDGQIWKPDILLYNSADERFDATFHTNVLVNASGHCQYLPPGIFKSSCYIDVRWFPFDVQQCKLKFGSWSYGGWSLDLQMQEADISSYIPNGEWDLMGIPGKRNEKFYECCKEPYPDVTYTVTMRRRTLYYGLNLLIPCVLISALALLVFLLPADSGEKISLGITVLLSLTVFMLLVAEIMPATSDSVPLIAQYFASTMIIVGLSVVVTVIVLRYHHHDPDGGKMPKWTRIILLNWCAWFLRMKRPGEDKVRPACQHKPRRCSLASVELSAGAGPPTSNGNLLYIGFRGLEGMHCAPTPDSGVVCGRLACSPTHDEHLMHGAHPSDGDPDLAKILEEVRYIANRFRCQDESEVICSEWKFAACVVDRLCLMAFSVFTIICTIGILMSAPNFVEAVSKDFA

For the compound `c1ccc2sc(NC3=NC[C@@]4(C[N@]5CCC[C@H]4C5)O3)nc2c1` (relative stereo) [Example 1, (5S*,5′R*)—N-(benzo[d]thiazol-2-yl)-4′H-1-azaspiro[bicyclo[3.2.1]octane-6,5′-oxazol]-2′-amine], the EC50 by setting is: under setting [1], 1000 to 100000 nM; under setting [2], greater than 100000 nM.
For `COc1ccc2nc(NC3=NC[C@@]4(C[N@]5CCC[C@H]4C5)O3)sc2c1` (relative stereo) [Example 2, (5S*,5′R*)—N-(6-methoxybenzo[d]thiazol-2-yl)-4′H-1-azaspiro[bicyclo[3.2.1]octane-6,5′-oxazol]-2′-amine] the same measures were 100 to 1000 nM and 2050 nM.
`c1cnc2sc(NC3=NC[C@@]4(C[N@]5CCC[C@H]4C5)O3)nc2c1` (relative stereo) [Example 3, (5S*,5′R*)—N-(thiazolo[5,4-b]pyridin-2-yl)-4′H-1-azaspiro[bicyclo[3.2.1]octane-6,5′-oxazol]-2′-amine]: the EC50 runs as follows: under setting [3], 1080 nM; under setting [4], 100 to 1000 nM.
On to `c1cnc2sc(NC3=NC[C@@]4(C[N@@]5CCC[C@@H]4C5)O3)nc2c1` (relative stereo) [Example 5, (5R*,5′R*)—N-(thiazolo[5,4-b]pyridin-2-yl)-4′H-1-azaspiro[bicyclo[3.2.1]octane-6,5′-oxazol]-2′-amine], for which the EC50 by setting is: under setting [3], 132 nM; under setting [4], less than 100 nM.
For `c1ccc2cc(NC3=NC[C@@]4(C[N@]5CCC[C@H]4C5)O3)ncc2c1` (single isomer, unassigned) [Example 4, (5S*,5R*)—N-(isoquinolin-3-yl)-4′H-1-azaspiro[bicyclo[3.2.1]octane-6,5′-oxazol]-2′-amine], the EC50 by setting is: under setting [3], 820 nM; under setting [4], less than 100 nM.
In the case of `c1cnc2sc(NC3=NCC4(CN5CCCC4C5)O3)nc2c1` (single isomer, unassigned) [Example 5a], the 50% effective concentration (EC50) was 105 nM under setting [3] and less than 100 nM under setting [4].
With `c1cnc2sc(NC3=NCC4(CN5CCCC4C5)O3)nc2c1` (single isomer, unassigned) [Example 5b], the half-maximal effective concentration (EC50) is, setting by setting: under setting [3], 88 nM; (read-out: FLIPR α7 actvity rating (EC50), activity class based on EC50, Ca2+ influx) less than 100 nM.

The values are drawn from patent US8507516B2, “Azabicyclic compounds as alpha-7 nicotinic acetylcholine receptor ligands” (Bristol-Myers Squibb Company, priority 2009, dated 2013).
